# Laboratory results taken from patent US20200046774A1, “COMPOSITION FOR PREVENTING OR TREATING BONE DISEASES WHICH HAS EXCELLENT BONE REGENERATION EFFECT” (KOREA UNIVERSITY RESEARCH AND BUSINESS FOUNDATION, priority 2017, published 2020).
# Tests used:
# [1] = test system: HGPRT knockout cell line of Example 14; settings: after 9 days of 6-TG treatment, in comparison to the TDF cell line of Example 3; FIG. 20
# [2] = test system: TDF cell line of Example 3; test: Evaluation of apoptosis by gancyclovir treatment (HSV-tk kill switch); assay type: cell-based; settings: 0, 50 and 500 μg/ml, 72 hours to 124 hours; depending on concentration and time; FIGS. 12 and 13
# Procedure: TDF cell line of Example 3, a cell line of Example 3 was treated with gancyclovir in concentrations of 0 μg/ml, 50 μg/ml and 500 μg/ml, respectively, and the number of cells was observed and analyzed for a period of 72 hours to 124 hours, as shown in FIGS. 12 and 13.
# [3] = test system: alkaline phosphatase (ALP); test: ALP activity (early osteogenic induction ability), OIM or GM culture; settings: 1 ng/ml, 2 ng/ml and 5 ng/ml of BMP-2, 7 days after induction of osteogenesis, versus control not treated with BMP-2; FIG. 4
# Procedure: After 3 days and 7 days of the culturing, samples were washed twice with a PBS solution, and dissolved in a cell lysis buffer to which 0.1% Triton X-10 was added.
# Lysed cells were centrifuged at 4° C. and 13000 rpm for 30 minutes, and then a supernatant was recovered and quantitated by a Bradford assay. The ALP activity was measured at 405 nm for the same amount of proteins using an ALP kit (AnaSpec), and the results are shown in FIG. 3.
compound,measurement,setting,value
"Nc1nc2[nH]cnc2c(=S)[nH]1 [Example 6-TG, 6-tioguanine]",cell survival under 6-TG treatment,[1],more cells survived
Nc1nc(O)c2ncn(COC(CO)CO)c2n1 [ganciclovir],cell growth / number of cells under gancyclovir,[2],cell growth is inhibited
BMP-2,ALP activity of normal TDF cell line with BMP-2 injected from the outside,[3],statistically significant ALP activity was not observed
